These results are taken from paper PMC9161374 (Science Translational Medicine, 2022).

For series [1], the system named is SARS-CoV-2 replicon system (pBAC-SARS-CoV-2-Replicon-Luc). The series is described as follows: microbe, parasite or virus in culture. In kind it is cell-based. The note with it: for EC50 / EC90: Severe acute respiratory syndrome coronavirus 2, HEK-293T, 60 h; for EC50: read-out: EC50 (Confidence 95%), replicon; for EC90: read-out: EC90 (Confidence 95%), replicon. (A replicon is a self-replicating genome or part of one, used to study replication in cells.)

Series [2] is described as follows: Permeability and efflux ratio in Caco-2 cells. In kind it is in vitro ADME. Particulars: human; for Papp A→B: AB; for Papp B→A: BA. The text has this:
ATV019, and ATV020 in Caco-2 cells.
Compound Caco-2 AB/BA (Papp (10-6 cm/s)) a Efflux ratio
(Caco-2 cells form a polarised layer with tight junctions and transporters.)

In another series the test system is Vero E6 cells. Briefly: CCK-8 cell viability assay. In kind it is cell-based, African green monkey. Particulars: individual replicate values, Fig.S4. Here is the method:
To investigate the effect of drugs on cell viability, Vero E6 cells were seeded in 96-well plates at a density of 20,000 cells per well and were treated with drugs at indicated concentrations (0, 0.01, 0.1, 1, 5, 10, 50, 75, 100, 200 μM) for 48 hours. Cell viability was tested by using Cell Counting Kit-8 (CCK-8, Bimake, B34302). The figures were plotted from cell viability percentage versus the drug concentrations using GraphPad Prism 6 software.
Fig. S4. Cytotoxicity assay of compounds in Vero E6 cells.
Vero E6 cells were plated in 96-well plates and treated with increasing concentrations
of each indicated compound, ranging from 0 to 200 μM, for 48 hours. Cell viability was
tested using Cell Counting Kit-8 (CCK-8). Data are presented as mean ± SD.
Background: Formazan colour is commonly taken as a measure of viable cells.

“And” between values parts separate entries of the source, which are not always exact repeats. Equal entries are not always repeated.

For orientation: EC50 means the concentration needed to bring the measured effect to its halfway point. The term EC90 denotes the concentration at which the effect reaches the 90% level. Turning to `CC(=O)OC[C@H]1O[C@@](C#N)(c2ccc3c(N)ncnn23)[C@H](OC(C)=O)[C@@H]1OC(C)=O` [ATV003], in series [1], the “activity in the replicon system in comparison with parent GS-441524” value (from here on “activity in the replicon system”) was “did not substantially change the activity”, the 50% effective concentration (EC50) came to 829 nM and the EC90 turned out to be 2320 nM.

Turning to `N#C[C@@]1(c2ccc3c(N)ncnn23)O[C@H](COC(=O)CC(F)(F)F)[C@@H](O)[C@H]1O` [ATV016], in series [1], the EC50 is 830 nM and the EC90 worked out at 1230 nM.

Turning to `CCC(C)[C@H](N)C(=O)OC[C@H]1O[C@@](C#N)(c2ccc3c(N)ncnn23)[C@H](O)[C@@H]1O` (stereo partly shown) [ATV023], in series [1], the EC50 is 950 nM and the EC90 came out at 2010 nM.

For the compound `CC(C)C(=O)OC[C@H]1O[C@@](C#N)(c2ccc3c(N)ncnn23)[C@H](OC(=O)C(C)C)[C@@H]1OC(=O)C(C)C` [ATV004], in series [1], the “activity in the replicon system” value is given as “improved the inhibitory activities”, the EC50 was 675 nM and the EC90 was determined as 2070 nM.

By efflux ratio is commonly meant a quotient of directional permeabilities that is used to spot active efflux. One may read the Papp A→B as how fast a substance crosses the layer from the apical side. In general, Papp B→A refers to how fast a substance crosses the layer from the basolateral side. Regarding `CC(C)[C@H](N)C(=O)OC[C@H]1O[C@@](C#N)(c2ccc3c(N)ncnn23)[C@H](O)[C@@H]1O` [ATV020], in series [1], the EC50 was found to be 2350 nM and the EC90 was 13400 nM. In addition, in series [2], the efflux ratio stood at 1.28, the Papp A→B amounted to 0.17 ×10⁻⁶ cm/s and the Papp B→A was found to be 0.22 ×10⁻⁶ cm/s.

With `CC(C)[C@@H](N)C(=O)OC[C@H]1O[C@@](C#N)(c2ccc3c(N)ncnn23)[C@H](O)[C@@H]1O` [ATV019], in series [1], the EC50 came out at 974 nM and the EC90 stood at 3810 nM. For the same compound, in series [2], the efflux ratio turned out to be 2.47, the Papp A→B was found to be 0.28 ×10⁻⁶ cm/s and the Papp B→A came to 0.68 ×10⁻⁶ cm/s.

`CC(=O)OC[C@H]1O[C@@](C#N)(c2ccc3c(N)ncnn23)[C@H](O)[C@@H]1O` [ATV007]: in series [1], the EC50 was 1960 nM and the EC90 was found to be 3730 nM.

`CCC(CC)COC(=O)[C@H](C)N[P@](=O)(OC[C@H]1O[C@@](C#N)(c2ccc3c(N)ncnn23)[C@H](O)[C@@H]1O)Oc1ccccc1` [RDV]: the “cell viability (% of control)” value in the series on Vero E6 cells (0.1 μM compound, 0.1 µM) is 100.353 % of control and 102.354 % of control and 103.353 % of control; in the series on Vero E6 cells (1 μM compound, 1 µM) it was 99.5206 % of control and 102.566 % of control and 112.154 % of control; with Vero E6 cells (2 μM compound, 2 µM) it was 97.4544 % of control and 95.2342 % of control and 99.3423 % of control; in the series with Vero E6 cells (5 μM compound, 5 µM), 91.6526 % of control and 95.3187 % of control and 100 % of control; in the series on Vero E6 cells (10 μM compound, 10 µM), 93.1472 % of control and 90.0169 % of control and 88.1839 % of control; in the series on Vero E6 cells (20 μM compound, 20 µM), 90.3424 % of control and 95.3423 % of control and 99.3423 % of control. Besides, the “cell viability (% of control)” value with Vero E6 cells (50 μM compound, 50 µM) was 80.3835 % of control and 84.2922 % of control and 85.9278 % of control.

For `CC(=O)Nc1ncnn2c([C@]3(C#N)O[C@H](COC(C)=O)[C@@H](OC(C)=O)[C@H]3OC(C)=O)ccc12` [ATV002], the “activity in the replicon system” value in series [1] was “decreased antiviral activities”.

For `CCC(=O)OC[C@H]1O[C@@](C#N)(c2ccc3c(N)ncnn23)[C@H](O)[C@@H]1O` [ATV008], in series [1], the EC50 was found to be 815 nM and the EC90 amounted to 3140 nM.

Take `CC(C)C(=O)Nc1ncnn2c([C@]3(C#N)O[C@H](COC(=O)C(C)C)[C@@H](OC(=O)C(C)C)[C@H]3OC(=O)C(C)C)ccc12` [ATV001]: the “activity in the replicon system” value in series [1] is given as “decreased antiviral activities”.

As for `CCC(C)[C@@H](N)C(=O)OC[C@H]1O[C@@](C#N)(c2ccc3c(N)ncnn23)[C@H](O)[C@@H]1O` (stereo partly shown) [ATV024], in series [1], the EC50 worked out at 864 nM and the 90% effect concentration (EC90) worked out at 1470 nM.

For `N#C[C@@]1(c2ccc3c(N)ncnn23)O[C@H](COC(=O)C2CCCC2)[C@@H](O)[C@H]1O` [ATV015], in series [1], the EC50 turned out to be 713 nM and the EC90 is 962 nM.

On to `CCCC(=O)OC[C@H]1O[C@@](C#N)(c2ccc3c(N)ncnn23)[C@H](O)[C@@H]1O` [ATV0009], for which the “cell viability (% of control)” value in the series on Vero E6 cells (0.01 μM compound, 0.01 µM) was 109.752 % of control and 112.521 % of control and 116.766 % of control; with Vero E6 cells (0.1 μM compound, 0.1 µM), 123.319 % of control and 106.337 % of control and 117.182 % of control; with Vero E6 cells (1 μM compound, 1 µM), 116.074 % of control and 120.089 % of control and 107.814 % of control; in the series with Vero E6 cells (2 μM compound, 2 µM), 114.09 % of control and 114.182 % of control and 114.044 % of control; in the series with Vero E6 cells (5 μM compound, 5 µM), 120.412 % of control and 124.38 % of control and 128.395 % of control; in the series on Vero E6 cells (10 μM compound, 10 µM) it was 124.625 % of control and 120.839 % of control and 120.84 % of control. Besides, the “cell viability (% of control)” value in the series with Vero E6 cells (50 μM compound, 50 µM) is 90.5983 % of control and 85.7996 % of control and 95.8178 % of control.

Take `N#C[C@@]1(c2ccc3c(N)ncnn23)O[C@H](COC(=O)C2CC2)[C@@H](O)[C@H]1O` [ATV012]: in series [1], the EC50 amounted to 2170 nM and the EC90 was 3510 nM.
